Earlier results as cited in patent publication US7988998B2, “Sustained-release tramadol formulations with 24-hour efficacy” (Labopharm Inc., priority 2002, dated 2011).
Structures can show the parent of a compound that is named as a salt.

Details: patients receiving tramadol HCl

## COc1cccc(C2(O)CCCCC2CN(C)C)c1 (stereo not shown) [tramadol HCl, Tramadol hydrochloride]
  estimated incidence of seizures: less than 1%
